Experimental data from patent US10448639B2, “Fungicidal pyrazoles” (FMC CORPORATION, priority 2009, dated 2019).

Legend:
Alternaria solani = assay: Test C: tomato early blight, preventive spray on tomato seedlings, visual disease rating; settings: for Test C rating (% disease control) / Test C disease control rating: tomato early blight, 100 = 100% disease control; for Test C disease control rating: 0 = no disease control relative to controls
[1] = tested on: Puccinia recondita f. sp. tritici; assay: Test H: wheat leaf rust, curative spray on inoculated wheat seedlings, visual disease rating; settings: for Test H rating (% disease control) / Test H disease control rating: wheat leaf rust, 100 = 100% disease control; for Test H disease control rating: sprayed after inoculation, 0 = no disease control relative to controls
Septoria tritici = assay: Test G: wheat leaf blotch, preventive spray on wheat seedlings, visual disease rating; settings: for Test G rating (% disease control) / Test G disease control rating: wheat leaf blotch, 100 = 100% disease control; for Test G disease control rating: sprayed the day before inoculation, 0 = no disease control relative to controls
Septoria nodorum = assay: Test F: Septoria glume blotch, preventive spray on wheat seedlings, visual disease rating; settings: for Test F rating (% disease control) / Test F disease control rating: 100 = 100% disease control; for Test F disease control rating: 0 = no disease control relative to controls
[2] = tested on: Puccinia recondita f. sp. tritici; assay: Test I: wheat leaf rust, preventive spray on wheat seedlings, visual disease rating; settings: for Test I rating (% disease control) / Test I disease control rating: wheat leaf rust, 100 = 100% disease control; for Test I disease control rating: sprayed the day before inoculation, 0 = no disease control relative to controls
Excerpt: General protocol for preparing test suspensions for Tests A-J: the test compounds were first dissolved in acetone in an amount equal to 3% of the final volume and then suspended at the desired concentration (in ppm) in acetone and purified water (50/50 mix by volume) containing 250 ppm of the surfactant Trem® 014 (polyhydric alcohol esters). The resulting test suspensions were then used in Tests A-J. Spraying a 200 ppm test suspension to the point of run-off on the test plants was the equivalent of a rate of 500 g/ha. Unless otherwise indicated, the rating values indicate a 200 ppm test suspension was used. (An asterisk “*” next to the rating value indicates a 40 ppm test suspension was used.)
The test suspension was sprayed to the point of run-off on wheat seedlings. The following day the seedlings were inoculated with a spore suspension of Puccinia recondita f. sp. tritici (the causal agent of wheat leaf rust) and incubated in a saturated atmosphere at 20° C. for 24 h, and then moved to a growth chamber at 20° C. for 7 days, after which time visual disease ratings were made
A dash (-) indicates no test results.

[3] = tested on: Erysiphe graminis f sp. tritici; assay: Test J: wheat powdery mildew, preventive spray on wheat seedlings, visual disease rating; settings: for Test J rating (% disease control) / Test J disease control rating: wheat powdery mildew, 100 = 100% disease control; for Test J disease control rating: sprayed the day before inoculation, 0 = no disease control relative to controls
Botrytis cinerea = assay: Test B: tomato Botrytis, preventive spray on tomato seedlings, visual disease rating; settings: for Test B rating (% disease control) / Test B disease control rating: tomato Botrytis, 100 = 100% disease control; for Test B disease control rating: 0 = no disease control relative to controls
[4] = 0 = no control relative to controls
[5] = curative, 0 = no control relative to controls
[6] = Septoria glume blotch, 0 = no control relative to controls
[7] = preventive, 0 = no control relative to controls
[8] = preventive spray, 0 = no control
[9] = Septoria glume blotch on wheat, preventive spray, 0 = no control

Row | SMILES | Test C rating (% disease control) (Alternaria solani; [4]) | Test H rating (% disease control) [1, 5] | Test G rating (% disease control) (Septoria tritici; [4]) | Test F rating (% disease control) (Septoria nodorum; [6]) | Test I rating (% disease control) [2, 7] | Test J rating (% disease control) [3, 4] | Test B rating (% disease control) (Botrytis cinerea; [4]) | other results
1 | Cc1nn(C)c(Nc2ccc(F)cc2F)c1-c1ccccc1C(F)(F)F [compound 238] | 0% | 53% | 0% | 0% | 9% | 43% | 99% | –
2 | Cc1nn(C)c(Nc2c(F)cc(C#N)cc2F)c1-c1c(F)cccc1F [compound 301] | 87% | 0% | 100% | 87% | 98% | 99% | 99% | –
3 | COc1ccc(Cl)c(Nc2c(-c3ccc(F)cc3F)c(C)nn2C)c1 [compound 227] | 0% | 0% | 99% | 0% | 74% | 98% | 87% | –
4 | Cc1nn(C)c(Oc2ncc(F)cc2F)c1-c1ccc(F)cc1Cl [compound 189] | 100% | 99% | 100% | 80% | 99% | 98% | 99% | –
5 | Cc1nn(C)c(Nc2ccc([N+](=O)[O-])cc2F)c1-c1ccc(F)cc1Cl [compound 344] | – | – | – | – | – | – | – | Test C disease control rating (Alternaria solani): 40%; Test H disease control rating [1]: 62%; Test G disease control rating (Septoria tritici): 100%; Test F disease control rating (Septoria nodorum; Septoria glume blotch on wheat): 87%; Test I disease control rating [2]: 100%; Test J disease control rating [3]: 100%; Test B disease control rating (Botrytis cinerea): 100%
6 | Cc1nn(C)c(Oc2ccc(C#N)cc2Cl)c1-c1ccc(Cl)cc1Cl [compound 362] | – | – | – | – | – | – | – | Test C disease control rating (Alternaria solani): 0%; Test H disease control rating [1]: 0%; Test G disease control rating (Septoria tritici): 100%; Test F disease control rating (Septoria nodorum; Septoria glume blotch on wheat): 0%; Test I disease control rating [2]: 96%; Test J disease control rating [3]: 96%; Test B disease control rating (Botrytis cinerea): 100%
7 | Cc1ccc(-c2c(C)nn(C)c2Oc2ccc([N+](=O)[O-])cc2Cl)cc1 [compound 52] | – | – | – | – | – | – | – | Test C rating (% disease control) (Alternaria solani; [8]): 0%; Test H rating (% disease control) ([1]; curative spray, 0 = no control): 0%; Test G rating (% disease control) (Septoria tritici; [8]): 97%; Test F rating (% disease control) (Septoria nodorum; [9]): 0%; Test I rating (% disease control) [2, 8]: 92%; Test J rating (% disease control) [3, 8]: 64%; Test B rating (% disease control) (Botrytis cinerea; [8]): 54%
8 | Cc1nn(C)c(Nc2ccc(F)cc2Cl)c1-c1ccccc1C(F)(F)F [compound 236] | 0% | 0% | 96% | 0% | 68% | 97% | 97% | –
9 | Cc1nn(C)c(Nc2c(F)cc(F)cc2F)c1-c1ccccc1F [compound 182] | 99% | 0% | 100% | 87% | 95% | 99% | 97% | –
10 | Cc1nn(C)c(Oc2c(F)cc(C#N)cc2F)c1-c1ccc(F)cc1Cl [Compound 45, 4-[[4-(2-chloro-4-fluorophenyl)-1,3-dimethyl-1H-pyrazol-5-yl]oxy]-3,5-difluorobenzonitrile] | – | – | – | – | – | – | – | pest or weed control at 200 µg/mL (Alternaria solani; Alternaria solani, in Solanum lycopersicum, 168 h, read-out: Test C rating (% disease control)): 100%; pest or weed control at 200 µg/mL ([1]; 144 h, read-out: Test H rating (% disease control)): 7%; pest or weed control at 200 µg/mL (Septoria tritici; Zymoseptoria tritici, in Triticum aestivum, 504 h, read-out: Test G rating (% disease control)): 100%; pest or weed control at 200 µg/mL (Septoria nodorum; Parastagonospora nodorum, in Triticum aestivum, 192 h, read-out: Test F rating (% disease control)): 100%; pest or weed control at 200 µg/mL ([2]; 192 h, read-out: Test I rating (% disease control)): 100%; pest or weed control at 200 µg/mL ([3]; Blumeria graminis, in Triticum aestivum, 192 h, read-out: Test J rating (% disease control)): 100%; pest or weed control at 200 µg/mL (Botrytis cinerea; Botrytis cinerea, in Solanum lycopersicum, 120 h, read-out: Test B rating (% disease control)): 100%
11 | COc1cc(F)c(-c2c(C)nn(C)c2Nc2ccc(F)c(F)c2)c(F)c1 [compound 48] | – | – | – | – | – | – | – | Test C rating (% disease control) (Alternaria solani; [8]): 78%; Test H rating (% disease control) ([1]; curative spray, 0 = no control): 0%; Test G rating (% disease control) (Septoria tritici; [8]): 99%; Test F rating (% disease control) (Septoria nodorum; [9]): 0%; Test I rating (% disease control) [2, 8]: 98%; Test J rating (% disease control) [3, 8]: 98%; Test B rating (% disease control) (Botrytis cinerea; [8]): 100%
12 | Cc1nn(C)c(Nc2c(F)ccc(F)c2F)c1-c1ccc(F)cc1Cl [compound 171] | 97% | 68% | 97% | 0% | 99% | 100% | 100% | –
13 | COc1cccc(Nc2c(-c3c(F)cccc3F)c(C)nn2C)c1Cl [compound 289] | 0% | 0% | 99% | 0% | 96% | 97% | 100% | –
14 | Cc1nn(C)c(Oc2c(F)cc(C#N)cc2F)c1-c1ccccc1F [compound 305] | – | – | – | – | – | – | – | Test C disease control rating (Alternaria solani): 99%; Test H disease control rating [1]: 0%; Test G disease control rating (Septoria tritici): 100%; Test F disease control rating (Septoria nodorum; Septoria glume blotch on wheat): 94%; Test I disease control rating [2]: 99%; Test J disease control rating [3]: 99%; Test B disease control rating (Botrytis cinerea): 99%
15 | Cc1nn(C)c(Oc2ccc([N+](=O)[O-])c(C#N)c2)c1-c1c(F)cc(F)cc1F [compound 156] | 0% | 0% | 73% | 0% | 41% | 47% | 94% | –
16 | Cc1nn(C)c(Nc2cccc(F)c2F)c1-c1ccc(F)cc1F [compound 214] | 51% | 9% | 100% | 0% | 99% | 100% | 98% | –
17 | Cc1nn(C)c(Oc2ncc(Cl)cc2Cl)c1-c1c(F)cc(F)cc1F [compound 64] | – | – | – | – | – | – | – | Test C rating (% disease control) (Alternaria solani; [8]): 80%; Test H rating (% disease control) ([1]; curative spray, 0 = no control): 0%; Test G rating (% disease control) (Septoria tritici; [8]): 100%; Test F rating (% disease control) (Septoria nodorum; [9]): 0%; Test I rating (% disease control) [2, 8]: 95%; Test J rating (% disease control) [3, 8]: 98%; Test B rating (% disease control) (Botrytis cinerea; [8]): 97%
